Test results: US7713713B2, “Polypeptide having intracellular calcium ion indicator function” (Kyoto University, priority 2005, dated 2010)
Square brackets hold non-standard residues; d marks the D form. Peptide text beside a SMILES is read from it. Nle = CCCC[C@H](N)C(=O)O

Assays:
calpain = test: Calpain inhibitor test: Fura-2 and EYFP fluorescence in primary cultures of cerebellum expressing F2C, potassium stimulation; assay type: cell-based, rat; conditions: ALLN 100 μM, ALLM 50 μM; for percentage of F535 EYFP maximum fluorescence change to Fura-2 maximum ratio change versus control free of calpain inhibitors: p>0.28; for percentage of F535 EYFP maximum fluorescence change to Fura-2 maximum ratio change (mean ± S.E.M.): preincubation 1 hr, potassium stimulation, n=10 cells
Protocol: (§1) The primary culture of cerebellum was incubated at 37° C., in 5% CO2 and 95% O2 atmosphere. The cells on a cover glass slip were infected with Sindbis-F2C 24 hrs before the incubation with Fura-2/AM (Molecular Probes, Eugene, Oregon, U.S.A.). This glass slip was transferred to a new dish filled with an external solution (ACSF, artificial cerebro-spinal fluid; 155 mM NaCl, 2.5 mM CaCl2, 1 mM MgCl2, 10 mM, HEPES, 17 mM glucose and 5 mM KOH and adjusted to pH 7.4). Fura-2/AM was added to a final concentration of 20 μM, and further incubated for 30 min at 37° C. Fura-2/AM (10 mM) stock was dissolved in DMSO. Cerebella cultures were transferred under the upright microscope equipped with a cooled CCD camera, and the image was prepared (ORCA-ER on Aquacosmos, Hamamatsu Photonics, Hamamatsu, Japan). For Fura-2 imaging, excitation light at wavelength 340 nm (10 nm band widths, 100% transmission) and excitation light at wavelength 380 nm (10 nm band widths, 100% transmission) were alternately applied, and fluorescence was captured at 510 nm and at longer wavelength. When F2C fluorescence was measured simultaneously, excitation light at 440 nm (10 nm band widths, 100% transmission) was applied and the fluorescence at a wavelength longer than 510 nm was captured. This fluorescence corresponds to EYFP. When FRET was measured from brain slice preparations or from cerebella cultures, neurons were excited at 440 nm (20 nm band width 60% transmission, XF1071 Omega Optical) with a dichroic mirror at 435 ram (XF2034 Omega Optical) and the fluorescence was monitored through 480 nm (30 nm bandwidth 75% transmission, XF3075 Omega Optical) for ECFP and 535 nm (25 nm bandwidth 70% transmission, XF3079 Omega Optical+50% ND filter) for EYFP.
To test the inhibition of calpain activities, calpain inhibitor-1 (ALLN, Calbiochem) and calpain inhibitor-2 (ALLM, Calbiochem) were adopted and Fura-2 fluorescence and EYFP fluorescence measurements were similarly conducted. The primary cultures of cerebellum were preincubated in ACSF containing ALLN (100 μM in DMSO), ALLM (50 μM in DMSO) or a combination of both for 1 hr. The same concentration of DMSO was added to ACSF as a control.

μ-calpain = target: T1, μ-calpain (Homo sapiens, UniProt P07384); test: Western blotting for cleavage of the fusion protein by calpain; assay type: biochemical; conditions: incubated with purified μ-calpain in Ca-EGTA buffer (data not shown)
T1 construct: purchased Calbiochem
T1 sequence (P07384 1-714): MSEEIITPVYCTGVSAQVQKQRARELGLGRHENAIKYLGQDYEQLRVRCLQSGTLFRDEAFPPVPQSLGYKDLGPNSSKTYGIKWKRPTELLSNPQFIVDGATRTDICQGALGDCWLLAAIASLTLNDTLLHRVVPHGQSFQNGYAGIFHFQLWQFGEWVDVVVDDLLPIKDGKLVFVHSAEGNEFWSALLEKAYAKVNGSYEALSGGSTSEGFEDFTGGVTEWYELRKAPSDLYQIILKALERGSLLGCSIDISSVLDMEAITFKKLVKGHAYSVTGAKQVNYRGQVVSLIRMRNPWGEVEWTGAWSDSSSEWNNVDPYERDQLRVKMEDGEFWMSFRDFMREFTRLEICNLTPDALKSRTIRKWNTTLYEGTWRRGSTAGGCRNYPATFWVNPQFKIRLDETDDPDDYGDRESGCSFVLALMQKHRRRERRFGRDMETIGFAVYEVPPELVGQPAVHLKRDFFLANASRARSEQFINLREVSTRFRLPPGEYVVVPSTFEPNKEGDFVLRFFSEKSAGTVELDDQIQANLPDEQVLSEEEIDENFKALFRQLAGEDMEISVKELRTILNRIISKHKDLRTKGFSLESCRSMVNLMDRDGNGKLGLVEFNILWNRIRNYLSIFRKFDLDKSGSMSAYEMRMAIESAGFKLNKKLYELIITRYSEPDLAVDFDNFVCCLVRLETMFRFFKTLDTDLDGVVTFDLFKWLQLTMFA
T1 sequence (P04632 1-268 partner): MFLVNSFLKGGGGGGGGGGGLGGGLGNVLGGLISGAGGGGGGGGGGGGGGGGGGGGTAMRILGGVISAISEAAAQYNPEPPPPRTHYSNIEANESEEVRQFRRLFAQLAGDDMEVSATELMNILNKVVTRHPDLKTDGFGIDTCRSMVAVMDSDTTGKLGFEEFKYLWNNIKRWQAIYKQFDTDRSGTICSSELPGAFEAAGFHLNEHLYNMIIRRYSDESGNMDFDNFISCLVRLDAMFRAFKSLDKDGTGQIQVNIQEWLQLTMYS
Protocol: To obtain cell lysate, cells were pelletized and homogenized in EGTA buffer (10 mM EGTA-Na, 10 mM HEPES-K, 150 mM NaCl) or Ca-EGTA buffer (10 mM CaCl2, 10 mM EGTA-Na, 10 mM HEPES-K, 150 mM NaCl). The Ca^2+ concentration was finally adjusted to 20 μM. The cell lysates contained the protease inhibitor cocktail (Nacalai Tesque). The cell lysates were incubated at 30° C. for 30 min or 60 min. In some experiments, cell lysates were incubated with a purified μ-calpain (Calpain I, Calbiochem, California, U.S.A.) at 30° C. for 30 min or 60 min. These cell lysates were centrifuged at 20,000×g for 20 min and the supernatants were fractionated. The supernatants were loaded onto 10% SDS-PAGE gels. Western blotting was carried out according to the method of Towbin et al. (Towbin, H. et al., Proc. Natl. Acad. Sci. U.S.A., 76, 4350-4354, 1979), using mouse anti-GFP antibody for detecting F2C cleavage (dilution rate 1:1000, MBL, Nagoya, Japan) and anti-PKC α antibody (dilution rate 1:500, Upstate, N.Y., U.S.A.) to confirm calpain activity.

Ca^2+ = test: Simultaneous Fura-2 and F2C fluorescence measurement, Ca2+ titration and kinetics; assay type: cell-based, rat
Protocol: as §1
Rmax=2.38 and Rmin=0.58 were obtained by measurement from the Purkinje cell membrane loaded with Fura-2 perforated with 1 μM ionomycin, after equilibration with normal ACSF ([…]) for Rmax and equilibration with 0 mM CaCl2, 10 mM EGTA ACSF for Rmin. […]

[1] = test system: cerebellar Purkinje cells; test: FRET fluorescence ratio (ECFP/EYFP) in cultured Purkinje cells expressing the indicator, KCl stimulation; assay type: cell-based, rat
Protocol: Purkinje cells were cultured in the same manner as reported previously (Weber, A. et al., Brain Res., 311, 119-130, 1984/Hirano, T. et al., Proc. Natl. Acad. Sci. U.S.A., 83, 1945-1949, 1986). In short, cerebella were dissected from Wistar rat fetus (about 20 days of fetal stage), and meninges were removed. The cerebella were incubated at 20° C. for 4 min in 1% trypsin (Invitrogen, California, U.S.A.)/0.05% DNase (Sigma, Missouri, U.S.A.) solution containing 137 mM NaCl, 5 mM KCl, 7 mM Na2PO4, and 25 mM HEPES (pH 7.2). After washing with Ca^2+- and Mg^2+-free Hanks' balanced salt solution (Invitrogen) three times, the tissue was dispersed by trituration with a fire polished Pasteur pipette in Ca^2+-free Hanks' balanced salt solution containing 0.05% DNase and 12 mM MgSO4. The cell suspension was centrifuged at 180×g at room temperature and the pelletized cells were resuspended at a concentration of 10^6 cells per 1 ml in a defined medium, which facilitates the survival of neurons (Weber, A. et al., Brain Res., 311, 119-130, 1984/Fischer, G. et al., Neurosci Lett, 28, 325-329, 1982). 2 ml of this cell suspension was plated on a Petri dish containing several heat-sterilized glass coverslips coated with 0.01% poly-L-lysin (Sigma). This cell culture was incubated at 37° C. in 5% CO2. The cells on the glass coverslips were used for infection with Sindbis virus. […]
(§2) The primary culture of cerebellum was incubated at 37° C., in 5% CO2 and 95% O2 atmosphere. […] For Fura-2 imaging, excitation light at wavelength 340 nm (10 nm band widths, 100% transmission) and excitation light at wavelength 380 nm (10 nm band widths, 100% transmission) were alternately applied, and fluorescence was captured at 510 nm and at longer wavelength. When F2C fluorescence was measured simultaneously, excitation light at 440 nm (10 nm band widths, 100% transmission) was applied and the fluorescence at a wavelength longer than 510 nm was captured. This fluorescence corresponds to EYFP. […]

[2] = test system: cochlear nucleus neurons in brain slices; test: FRET fluorescence ratio (ECFP/EYFP) in cochlear nucleus neurons of brain-stem slices after in vivo Sindbis injection, KCl stimulation; assay type: cell-based, rat
Protocol: Young Wistar rats (9-10 days old) were anesthetized with chloral hydrate (0.3 mg/g body weight). Then, the head of rat was fixed on a stereotaxis stage with a pair of ear bars and a nose clamp (SR-5N, Narishige, Tokyo, Japan). The head skin was sagittally incised and a small hole was made through the skull to expose the cerebellum. A micropipette was inserted through cerebellum, and a suspension of Sindbis virus encoding F2C protein (Sindbis-F2C) was injected (0.5-1 μl) into the brainstem by applying a mild positive pressure to the micropipette with the mouth. The incised part of the skin was then sutured and the rat was returned to the mother after recovery from anesthesia. […]
as §2

Row | Molecule | percentage of F535 EYFP maximum fluorescence change to Fura-2 maximum ratio change versus control free of calpain inhibitors (calpain) | percentage of F535 EYFP maximum fluorescence change to Fura-2 maximum ratio change (mean ± S.E.M.) (calpain) [%] | fragmented protein signal in Western blot (cleavage by calpain) (μ-calpain) | speed of Ca^2+ response (20-80% rise time of F535) compared with Fura-2 (F340/F380) (Ca^2+; n=240 cells, various CaCl2 and KCl conditions) | Hill coefficient (Ca^2+; titration of F2C, pH 7.4) | Kd (Ca^2+; titration of F2C, pH 7.4, read-out: apparent Kd value for Ca^2+) [nM] | ECFP/EYFP fluorescence ratio change ([1]; Purkinje cells 14DIV exposed to 7.5 mM KCl (basal 5 mM)) [fold] | ECFP/EYFP fluorescence ratio change ([1]; Purkinje cells 14DIV exposed to 10 mM KCl (basal 5 mM)) [fold] | ECFP/EYFP fluorescence ratio change ([1]; Purkinje cells 14DIV exposed to 15 mM KCl (basal 5 mM)) [fold] | time over which reversible changes of the ECFP/EYFP fluorescence ratio were observed ([2]; 10 mM KCl stimulation, cochlear nucleus neurons, FIG. 9) | change of FRET fluorescence ratio on exposure to high KCl solution ([2]; brainstem slices, 15 mM KCl applied 3 times)
1 | CSCC[C@@H](C=O)NC(=O)[C@H](CC(C)C)NC(=O)[C@H](CC(C)C)NC(C)=O [ALLM] (Ac-Leu-Leu-Met-aldehyde) | not different | 35.9 ± 1.4 | – | – | – | – | – | – | – | – | –
2 | CCCC[C@@H](C=O)NC(=O)[C@H](CC(C)C)NC(=O)[C@H](CC(C)C)NC(C)=O [ALLN] (Ac-Leu-Leu-[Nle]-aldehyde) | not different | 37.1 ± 2.1 | – | – | – | – | – | – | – | – | –
3 | F2C: Fusion protein (SEQ ID NO:6): GAP43 palmitoylation signal, ECFP, two α-spectrin calpain sensitive sequences, EYFP | – | – | not detected | almost the same speed | 4 | 150 | 1.03 | 1.39 | 1.78 | at least 200 min | changed reversibly
